Results as given in US20230274811A1, “METHODS OF MAKING PROSTATE CANCER TREATMENT DECISIONS” (Progenics Pharmaceuticals, Inc., priority 2020, published 2023).

Tested on: biochemically recurrent prostate cancer
Test: CONDOR: 18F-DCFPyL PET/CT correct localization rate, detection rate and PPV vs composite standard of truth
Format: in vivo, men
From the text: 1. Correct Localization Rate (CLR), defined as percentage of subjects with a one-to-one correspondence between localization of at least one lesion identified on ^18F-DCFPyL PET/CT imaging and the composite truth standard, defined as either evaluable histopathology, informative correlative imaging, or PSA response after radiation therapy.
Men ≥18 years of age with a rising PSA after definitive PCa therapy and negative or equivocal imaging were enrolled. […] The primary endpoint of this study was the correct localization rate (CLR). CLR is defined as the percentage of patients with a one-to-one correspondence between localization of at least one lesion identified by ^18F-DCFPyL PET/CT and a composite standard of truth (SOT). SOT was determined by two central readers and included either histopathology or another standard imaging modality (i.e., fluciclovine-PET/CT, CT/MRI, bone scan) or alternatively, by a post-treatment PSA change for irradiated lesions.
Methods: Men ≥18 years—with rising PSA after definitive therapy and negative or equivocal standard of care imaging (e.g., CT/MRI, bone scintigraphy) were enrolled. A single 9 mCi (333 MBq)±20% dose of PyL was injected, followed by PET/CT 1-2 hours later. Primary endpoint was correct localization rate (CLR), defined as percentage of pts with a 1:1 correspondence between at least one lesion identified by PyL-PET/CT and the composite standard of truth: pathology, correlative imaging, or PSA response. […] The secondary endpoint, impact of PyL-PET/CT on clinical management of pts was based on the treating physician's documented clinical plans before and after PyL-PET/CT.
Men with a PSA ≥0.2 ng/mL after surgery or ≥2 ng/mL above the nadir after radiation therapy were eligible for enrollment. The primary endpoint was the correct localization rate (CLR) defined as positive predictive value with an additional requirement of anatomical lesion colocalization between ^18F-DCFPyL-PET/CT and a composite standard of truth (SOT). The SOT consisted of, in descending priority: 1) histopathology, 2) correlative imaging findings determined by two central readers, or 3) post-radiation PSA response. […] The impact of ^18F-DCFPyL-PET/CT as defined by change in management intent, and safety were evaluated as secondary endpoints.
Patients voided prior to imaging, and PET and non-contrast CT images were acquired from the mid-thigh through the skull vertex. All ^18F-DCFPyL-PET/CT scans were submitted to the central imaging core laboratory for assessment. Patients with positive ^18F-DCFPyL-PET/CT scans based on local interpretation were scheduled for post-^18F-DCFPyL-PET/CT follow-up to verify suspected lesion(s) based on a composite standard of truth (SOT). (FIG. 16)
Because of the expected absence of an amenable lesion for histologic verification in all patients, a composite SOT was employed based on assessment performed or initiated within 60 days following ^18F-DCFPyL-PET/CT. These reference standards were defined (in descending priority) as (1) evaluable histopathology results from prostatectomy, salvage pelvic lymph node dissection or biopsy; (2) imaging findings using ^18F-fluciclovine or ^11C-choline PET, or focused MRI or CT; or (3) if neither of the above was available or informative, confirmed PSA response up to 9 months post-radiation initiation (with no concomitant ADT) of all PET-positive foci. PSA response was defined as PSA decline by ≥50% from baseline that was confirmed on repeat measurement within 4 weeks, based on central laboratory results.
A central imaging core laboratory was employed to independently manage image handling, reader training, reader sessions and data collection. […] The readers had no access to any clinical information, including PSA values or other imaging available for a patient. […]

[1] = SOT Correlative imaging n=100, Reader 1
[2] = SOT Correlative imaging n=100, Reader 2

Question: For `O=C(O)CC[C@H](NC(=O)N[C@@H](CCCCNC(=O)c1ccc([18F])nc1)C(=O)O)C(=O)O` [18F-DCFPyL, 2-(3-{1-carboxy-5-[(6-[^18F]fluoro-pyridine-3-carbonyl)-amino]-pentyl}ureido)-pentanedioic acid], which “pts with PSMA-avid lesion(s), local radiology assessment” value (142/208) is on record?
Answer: 69.3%

Question: What about the “PPV by anatomic region” value (Extra-pelvic, Reader 1 (CONDOR Reader 4 in Table 17)) of the same compound?
Answer: 33 (67.3) %

Question: And the “PPV by anatomic region” value (Extra-pelvic, Reader 1 (CONDOR Reader 4 in Table 17), listed as PyLARIFY)?
Answer: 67%

Question: What about the “PPV by anatomic region” value (Extra-pelvic, Reader 2 (CONDOR Reader 5 in Table 17)) of the same compound?
Answer: 31 (67.4) %

Question: And the “PPV by anatomic region” value (Extra-pelvic, Reader 2 (CONDOR Reader 5 in Table 17), listed as PyLARIFY)?
Answer: 67%

Question: And the “PPV by anatomic region” value (Extra-pelvic, Reader 3 (CONDOR Reader 6 in Table 17))?
Answer: 30 (69.8) %

Question: And the “PPV by anatomic region” value (Extra-pelvic, Reader 3 (CONDOR Reader 6 in Table 17), listed as PyLARIFY)?
Answer: 70%

Question: What about the “CLR by baseline PSA” value (PSA 0.5-<1.0 ng/mL, Reader 1) of the same compound?
Answer: 12 (75.0) %

Question: And the “Detection rate by baseline PSA” value (PSA 0.5-<1.0 ng/mL, Reader 1)?
Answer: 21 (56.8) %

Question: What about the “CLR by baseline PSA” value (PSA 0.5-<1.0 ng/mL, Reader 2) of the same compound?
Answer: 10 (76.9) %

Question: What about the Detection rate by baseline PSA (PSA 0.5-<1.0 ng/mL, Reader 2) of the same compound?
Answer: 45.9%

Question: What about the “CLR by baseline PSA” value (PSA 0.5-<1.0 ng/mL, Reader 3) of the same compound?
Answer: 11 (73.3) %

Question: What about the “Detection rate by baseline PSA” value (PSA 0.5-<1.0 ng/mL, Reader 3) of the same compound?
Answer: 19 (51.4) %

Question: What about the “CLR by baseline PSA” value (PSA 1.0-<2.0 ng/mL, Reader 1) of the same compound?
Answer: 17 (85.0) %

Question: What about the “Detection rate by baseline PSA” value (PSA 1.0-<2.0 ng/mL, Reader 1) of the same compound?
Answer: 24 (72.7) %

Question: And the “CLR by baseline PSA” value (PSA 1.0-<2.0 ng/mL, Reader 2)?
Answer: 14 (77.8) %

Question: What about the “Detection rate by baseline PSA” value (PSA 1.0-<2.0 ng/mL, Reader 2) of the same compound?
Answer: 22 (66.7) %

Question: And the “CLR by baseline PSA” value (PSA 1.0-<2.0 ng/mL, Reader 3)?
Answer: 15 (83.3) %

Question: And the “Detection rate by baseline PSA” value (PSA 1.0-<2.0 ng/mL, Reader 3)?
Answer: 19 (57.6) %

Question: And the “CLR by baseline PSA” value (PSA 2.0 < 5.0 ng/mL, Reader 1)?
Answer: 21 (91.3) %

Question: And the “Detection rate by baseline PSA” value (PSA 2.0 < 5.0 ng/mL, Reader 1)?
Answer: 28 (84.8) %

Question: What about the “CLR by baseline PSA” value (PSA 2.0 < 5.0 ng/mL, Reader 2) of the same compound?
Answer: 24 (92.3) %

Question: And the “Detection rate by baseline PSA” value (PSA 2.0 < 5.0 ng/mL, Reader 2)?
Answer: 29 (87.9) %

Question: What about the “CLR by baseline PSA” value (PSA 2.0 < 5.0 ng/mL, Reader 3) of the same compound?
Answer: 20 (90.9) %

Question: And the “Detection rate by baseline PSA” value (PSA 2.0 < 5.0 ng/mL, Reader 3)?
Answer: 27 (81.8) %

Question: What about the “CLR by baseline PSA” value (PSA <0.5 ng/mL, Reader 1) of the same compound?
Answer: 11 (73.3) %

Question: And the “Detection rate by baseline PSA” value (PSA <0.5 ng/mL, Reader 1)?
Answer: 29 (42.0) %

Question: And the CLR by baseline PSA (PSA <0.5 ng/mL, Reader 2)?
Answer: 76.9%

Question: And the “Detection rate by baseline PSA” value (PSA <0.5 ng/mL, Reader 2)?
Answer: 23 (33.3) %

Question: What about the “CLR by baseline PSA” value (PSA <0.5 ng/mL, Reader 3) of the same compound?
Answer: 11 (73.3) %

Question: What about the “Detection rate by baseline PSA” value (PSA <0.5 ng/mL, Reader 3) of the same compound?
Answer: 25 (36.2) %

Question: What about the “CLR by baseline PSA” value (PSA ≥5 ng/mL, Reader 1) of the same compound?
Answer: 27 (96.4) %

Question: And the “Detection rate by baseline PSA” value (PSA ≥5 ng/mL, Reader 1)?
Answer: 29 (96.7) %

Question: What about the “CLR by baseline PSA” value (PSA ≥5 ng/mL, Reader 2) of the same compound?
Answer: 28 (96.6) %

Question: What about the “Detection rate by baseline PSA” value (PSA ≥5 ng/mL, Reader 2) of the same compound?
Answer: 29 (96.7) %

Question: And the “CLR by baseline PSA” value (PSA ≥5 ng/mL, Reader 3)?
Answer: 26 (96.3) %

Question: What about the “Detection rate by baseline PSA” value (PSA ≥5 ng/mL, Reader 3) of the same compound?
Answer: 27 (90.0) %

Question: What about the “PPV by anatomic region” value (Pelvic, Reader 1 (CONDOR Reader 4 in Table 17)) of the same compound?
Answer: 41 (67.2) %

Question: What about the “PPV by anatomic region” value (Pelvic, Reader 1 (CONDOR Reader 4 in Table 17), listed as PyLARIFY) of the same compound?
Answer: 67%

Question: What about the “PPV by anatomic region” value (Pelvic, Reader 2 (CONDOR Reader 5 in Table 17)) of the same compound?
Answer: 40 (72.7) %

Question: What about the “PPV by anatomic region” value (Pelvic, Reader 2 (CONDOR Reader 5 in Table 17), listed as PyLARIFY) of the same compound?
Answer: 73%

Question: And the “PPV by anatomic region” value (Pelvic, Reader 3 (CONDOR Reader 6 in Table 17))?
Answer: 39 (70.9) %

Question: What about the “PPV by anatomic region” value (Pelvic, Reader 3 (CONDOR Reader 6 in Table 17), listed as PyLARIFY) of the same compound?
Answer: 71%

Question: And the “PPV by anatomic region” value (Prostatic (prostate bed), Reader 1 (CONDOR Reader 4 in Table 17), listed as PyLARIFY)?
Answer: 80%

Question: What about the “PPV by anatomic region” value (Prostatic (prostate bed), Reader 2 (CONDOR Reader 5 in Table 17)) of the same compound?
Answer: 30 (83.3) %

Question: What about the “PPV by anatomic region” value (Prostatic (prostate bed), Reader 2 (CONDOR Reader 5 in Table 17), listed as PyLARIFY) of the same compound?
Answer: 83%

Question: What about the “PPV by anatomic region” value (Prostatic (prostate bed), Reader 3 (CONDOR Reader 6 in Table 17)) of the same compound?
Answer: 27 (75.0) %

Question: And the “PPV by anatomic region” value (Prostatic (prostate bed), Reader 3 (CONDOR Reader 6 in Table 17), listed as PyLARIFY)?
Answer: 75%

Question: And the “CLR (TP/TP + FP)” value (SOT CT n=6, Reader 1)?
Answer: (80.0%)

Question: And the “Negative PyL Scan” value (SOT CT n=6, Reader 1)?
Answer: (16.7%)

Question: What about the “Positive PyL Scan” value (SOT CT n=6, Reader 1) of the same compound?
Answer: (83.3%)

Question: And the “CLR (TP/TP + FP)” value (SOT CT n=6, Reader 2)?
Answer: (100.0%)

Question: What about the “Negative PyL Scan” value (SOT CT n=6, Reader 2) of the same compound?
Answer: (16.7%)

Question: What about the “Positive PyL Scan” value (SOT CT n=6, Reader 2) of the same compound?
Answer: (83.3%)

Question: And the “CLR (TP/TP + FP)” value (SOT CT n=6, Reader 3)?
Answer: (80.0%)

Question: What about the “Negative PyL Scan” value (SOT CT n=6, Reader 3) of the same compound?
Answer: (16.7%)

Question: And the “Positive PyL Scan” value (SOT CT n=6, Reader 3)?
Answer: (83.3%)

Question: What about the “CLR (TP/TP + FP)” value [1] of the same compound?
Answer: (88.0%)

Question: And the “Negative PyL Scan” value [1]?
Answer: (18.0%)

Question: And the “PPV (TP/TP + FP)” value [1]?
Answer: (89.0%)

Question: And the “Positive PyL Scan” value [1]?
Answer: (82.0%)

Question: And the “CLR (TP/TP + FP)” value [2]?
Answer: (88.6%)

Question: What about the “Negative PyL Scan” value [2] of the same compound?
Answer: (24.0%)

Question: And the “PPV (TP/TP + FP)” value [2]?
Answer: (89.5%)

Question: And the “Positive PyL Scan” value [2]?
Answer: (76.0%)
